One block for each compound: values may come before it.
How the values were obtained:
Assay in all cases: competitive isoTOP-ABPP
Format in all cases: binding
[1] = molecular target: T1, ATP6V1F V-type proton ATPase subunit F (Homo sapiens, UniProt Q16864); details: for isoTOP-ABPP ratio (R) at liganded lysine Q16864_K6: 50 uM, in vitro, sol, 231
T1 construct: isoTOP-ABPP experiments performed in cell lysates (in vitro); endogenous in cells; host or cells: soluble proteome of human cancer cell lines (MDA-MB-231; Ramos and Jurkat also prepared)
T1 sequence (Q16864 whole entry): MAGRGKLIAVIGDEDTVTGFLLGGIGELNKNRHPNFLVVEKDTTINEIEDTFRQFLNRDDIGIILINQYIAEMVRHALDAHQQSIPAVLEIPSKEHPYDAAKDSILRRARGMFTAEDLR
Summary of the method: (§1)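 Readout: isotopic light/heavy MS1 peak-area ratio (R, DMSO heavy over compound light), median across peptides sharing a modified lysine. Lysate received fragment (activated esters 50 μM, guanidinylating agents 100 μM final) or DMSO, then 0.1 mM STP-alkyne probe for 1 h at ambient temperature.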

[2] = molecular target: T2, NT5DC1 5-nucleotidase domain-containing protein 1 (Homo sapiens, UniProt Q5TFE4); details: for isoTOP-ABPP ratio (R) at liganded lysine Q5TFE4_K123: 50 uM, in vitro, sol, 231
T2 construct: isoTOP-ABPP experiments performed in cell lysates (in vitro); endogenous in cells; host or cells: soluble proteome of human cancer cell lines (MDA-MB-231; Ramos and Jurkat also prepared)
T2 sequence (Q5TFE4 1-455): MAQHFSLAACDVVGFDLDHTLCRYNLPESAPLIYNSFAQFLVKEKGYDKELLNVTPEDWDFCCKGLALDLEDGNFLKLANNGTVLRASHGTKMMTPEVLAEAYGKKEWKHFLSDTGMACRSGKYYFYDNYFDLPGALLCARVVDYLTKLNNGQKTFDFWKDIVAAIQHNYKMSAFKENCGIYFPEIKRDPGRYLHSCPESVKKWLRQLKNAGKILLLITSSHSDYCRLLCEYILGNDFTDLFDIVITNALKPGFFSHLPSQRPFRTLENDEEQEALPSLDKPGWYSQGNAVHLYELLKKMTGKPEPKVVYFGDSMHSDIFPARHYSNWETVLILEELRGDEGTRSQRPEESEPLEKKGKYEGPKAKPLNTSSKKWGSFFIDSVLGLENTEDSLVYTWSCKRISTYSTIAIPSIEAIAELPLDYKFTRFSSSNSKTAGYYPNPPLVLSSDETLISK
Summary of the method: as §1

[3] = molecular target: T3, LDHB L-lactate dehydrogenase B chain (Homo sapiens, UniProt P07195)
T3 construct: isoTOP-ABPP experiments performed in cell lysates (in vitro); endogenous in cells; host or cells: MDA-MB-231 soluble lysate
T3 sequence (P07195 whole entry): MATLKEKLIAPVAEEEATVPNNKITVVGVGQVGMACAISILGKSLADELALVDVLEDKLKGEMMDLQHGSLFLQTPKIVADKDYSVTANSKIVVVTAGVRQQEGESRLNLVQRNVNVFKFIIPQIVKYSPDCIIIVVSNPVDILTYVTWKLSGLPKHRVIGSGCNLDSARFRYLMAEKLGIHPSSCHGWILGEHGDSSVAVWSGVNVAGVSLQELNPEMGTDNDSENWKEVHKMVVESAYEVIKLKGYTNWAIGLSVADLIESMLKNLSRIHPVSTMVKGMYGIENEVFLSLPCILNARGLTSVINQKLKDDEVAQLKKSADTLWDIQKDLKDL
Summary of the method: as §1

[4] = molecular target: T4, NUDT22 Nucleoside diphosphate-linked moiety X motif 22 (Homo sapiens, UniProt Q9BRQ3); details: for isoTOP-ABPP ratio (R) at liganded lysine Q9BRQ3_K60: 50 uM, in vitro, sol, 231
T4 construct: isoTOP-ABPP experiments performed in cell lysates (in vitro); endogenous in cells; host or cells: soluble proteome of human cancer cell lines (MDA-MB-231; Ramos and Jurkat also prepared)
T4 sequence (Q9BRQ3 1-303): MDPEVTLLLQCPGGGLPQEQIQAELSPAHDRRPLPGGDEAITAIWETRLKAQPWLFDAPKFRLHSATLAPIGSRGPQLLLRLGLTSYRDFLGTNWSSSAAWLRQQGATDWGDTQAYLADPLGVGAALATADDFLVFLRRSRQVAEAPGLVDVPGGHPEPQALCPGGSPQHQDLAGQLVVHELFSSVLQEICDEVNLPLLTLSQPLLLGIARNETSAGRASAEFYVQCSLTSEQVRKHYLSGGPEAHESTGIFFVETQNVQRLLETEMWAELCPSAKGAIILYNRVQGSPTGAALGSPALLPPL
Summary of the method: as §1

Compound: O=C(Oc1ccc([N+](=O)[O-])cc1[N+](=O)[O-])c1ccc(-c2ccccc2)cc1 [fragment 37, 2,4-Dinitrophenyl [1,1′-biphenyl]-4-carboxylate]
isoTOP-ABPP ratio (R) at liganded lysine Q16864_K6 [1]: 1.0
isoTOP-ABPP ratio (R) at liganded lysine Q5TFE4_K123 [2]: 1.8
isoTOP-ABPP ratio (R) at liganded lysine P07195_K82 ([3]; 50 uM, in vitro, sol, 231): 0.8
isoTOP-ABPP ratio (R) at liganded lysine P07195_K244 ([3]; 50 uM, in vitro, sol, 231): 0.8
isoTOP-ABPP ratio (R) at liganded lysine Q9BRQ3_K60 [4]: 1.0

Compound: O=C(Oc1ccc([N+](=O)[O-])cc1[N+](=O)[O-])C(c1ccccc1)(c1ccccc1)c1ccccc1 [fragment 42, 2,4-Dinitrophenyl 2,2,2-triphenylacetate]
isoTOP-ABPP ratio (R) at liganded lysine Q16864_K6 [1]: 1.0
isoTOP-ABPP ratio (R) at liganded lysine Q5TFE4_K123 [2]: 0.6
isoTOP-ABPP ratio (R) at liganded lysine P07195_K82 ([3]; 50 uM, in vitro, sol, 231): 20.0
isoTOP-ABPP ratio (R) at liganded lysine Q9BRQ3_K60 [4]: 0.8

Compound: O=C(ON1C(=O)CCC1=O)c1cc(C(F)(F)F)cc(C(F)(F)F)c1 [fragment 46, 3,5-Bis(trifluoromethyl)benzoic acid NHS ester]
isoTOP-ABPP ratio, lysine Q16864_K6 ([1]; 50 uM_231_sol_in vitro): 20.0
isoTOP-ABPP ratio, lysine Q5TFE4_K123 ([2]; 50 uM_231_sol_in vitro): 20.0
isoTOP-ABPP ratio, lysine P07195_K82 ([3]; 50 uM_231_sol_in vitro): 0.7
isoTOP-ABPP ratio, lysine P07195_K244 ([3]; 50 uM_231_sol_in vitro): 0.8
isoTOP-ABPP ratio, lysine Q9BRQ3_K60 ([4]; 50 uM_231_sol_in vitro): 0.9

isoTOP-ABPP ratio, lysine Q16864_K6 ([1]; 100 uM_231_sol_in vitro): 1.4
isoTOP-ABPP ratio, lysine Q5TFE4_K123 ([2]; 100 uM_231_sol_in vitro): 1.1
isoTOP-ABPP ratio, lysine P07195_K82 ([3]; 100 uM_231_sol_in vitro): 0.9
isoTOP-ABPP ratio, lysine P07195_K244 ([3]; 100 uM_231_sol_in vitro): 1.1
isoTOP-ABPP ratio, lysine Q9BRQ3_K60 ([4]; 100 uM_231_sol_in vitro): 1.0
Compound: CC(C)(C)OC(=O)N=C(NC(=O)OC(C)(C)C)n1cccn1 [fragment 50, reference compound]

— patent US20210255193A1, “LYSINE REACTIVE PROBES AND USES THEREOF” (The Scripps Research Institute, priority 2017, published 2021)
